Experiment: Acute toxicity, LD50 in mice (Litchfield and Wilcoxon)
Settings: mouse, in vivo, po
Description: LD50 values were determined in mice and calculated according to the method of Litchfield and Wilcoxon described in J. Pharmacol. Exp. Ther., 96, 99 (1949).

Structure (SMILES) | LD50
CCOC(=O)c1c(C)cc2cnn(-c3ccccc3Cl)c(=O)c2c1C [7-ethoxycarbonyl-6,8-dimethyl-2-(o-chlorophenyl)-1-phthalazone] | 386 mg/kg
CCOC(=O)c1c(C)cc2c(CO)nn(-c3ccccc3Cl)c(=O)c2c1C [7-ethoxycarbonyl-6,8-dimethyl-2-(o-chlorophenyl)-4-hydroxymethyl-1-phthalazone] | 564 mg/kg
CCOC(=O)c1c(C)cc2cnn(-c3ccccc3F)c(=O)c2c1C [7-ethoxycarbonyl-6,8-dimethyl-2-(o-fluorophenyl)-1-phthalazone] | 450 mg/kg
CCOC(=O)c1c(C)cc2cnn(-c3ccccc3)c(=O)c2c1C [7-ethoxycarbonyl-6,8-dimethyl-2-phenyl-1-phthalazone] | 480 mg/kg
CCOC(=O)c1c(C)cc2c(CO)nn(-c3ccccc3)c(=O)c2c1C [7-ethoxycarbonyl-6,8-dimethyl-4-hydroxymethyl-2-phenyl-1-phthalazone] | 540 mg/kg

— patent US4293553A, “1-Phthalazone derivatives, and use thereof” (Ishikawa; Masayuki, priority 1978, dated 1981)
